# Test results from PubChem BioAssay AID264 (DTP/NCI, 2004).
# “And” between values parts separate entries of the source, which are not always exact repeats. Identical values can stand only once. Inconclusive results are not listed.
# Test system: nude mice, LX-1 lung xenograft intrarenal, tumor weight T/C
# Experiment: NCI In Vivo Anticancer Drug Screen. Data for tumor model Human Lung LX-1 Xenograft (intrarenal inoculation) in NU/NU Swiss (nude) mice
# Conditions: endpoint: mean tumor weight change, higher = larger tumour
# Method in brief: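 Antitumor effect is expressed as a ratio: the mean tumor measurement of the drug-treated group relative to that of the vehicle-dosed control group.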
# [1] = dose: 200.0 mg/kg/injection, schedule: Q01DX010 (sc), vehicle: saline with Tween-80
# [2] = dose: 50.0 mg/kg/injection, schedule: Q01DX010 (sc), vehicle: saline with Tween-80
# [3] = dose: 150.0 mg/kg/injection, schedule: Q04DX003 (sc), vehicle: saline
# [4] = dose: 300.0 mg/kg/injection, schedule: Q04DX003 (sc), vehicle: saline
# [5] = dose: 400.0 mg/kg/injection, schedule: Q01DX010 (sc), vehicle: saline with Tween-80
# [6] = dose: 600.0 mg/kg/injection, schedule: Q04DX003 (sc), vehicle: water
# [7] = dose: 0.25 mg/kg/injection, schedule: Q01DX010 (sc), vehicle: saline
# [8] = dose: 2.0 mg/kg/injection, schedule: Q01DX010 (sc), vehicle: saline
# [9] = dose: 150.0 mg/kg/injection, schedule: Q04DX003 (sc), vehicle: saline with Tween-80
# [10] = dose: 300.0 mg/kg/injection, schedule: Q04DX003 (sc), vehicle: saline with Tween-80
# [11] = dose: 600.0 mg/kg/injection, schedule: Q04DX003 (sc), vehicle: saline with Tween-80
# [12] = dose: 1200.0 mg/kg/injection, schedule: Q04DX003 (sc), vehicle: saline with Tween-80
# [13] = dose: 75.0 mg/kg/injection, schedule: Q04DX003 (sc), vehicle: saline
compound,measurement,setting,value
CN(C)C=O,T/C,"dose: 800.0 mg/kg/injection, schedule: Q01DX010 (sc), vehicle: saline",91 % of control
same,T/C,"dose: 1600.0 mg/kg/injection, schedule: Q01DX010 (sc), vehicle: saline",74 % of control
C1CCC2OCCOCCOC3CCCCC3OCCOCCOC2C1 (stereo unspecified),T/C,"dose: 9.38 mg/kg/injection, schedule: Q04DX003 (sc), vehicle: Klucel (hydroxypropylcellulose) (HPC)",170 % of control
same,T/C,"dose: 18.75 mg/kg/injection, schedule: Q04DX003 (sc), vehicle: Klucel (hydroxypropylcellulose) (HPC)",159 % of control
CCOC(=O)CNC(=O)Sc1ccc(C(C)(C)C)cc1,T/C,"dose: 150.0 mg/kg/injection, schedule: Q04DX003 (sc), vehicle: Klucel (hydroxypropylcellulose) (HPC)",89 % of control
same,T/C,"dose: 300.0 mg/kg/injection, schedule: Q04DX003 (sc), vehicle: Klucel (hydroxypropylcellulose) (HPC)",99 % of control
same,T/C,"dose: 600.0 mg/kg/injection, schedule: Q04DX003 (sc), vehicle: Klucel (hydroxypropylcellulose) (HPC)",76 % of control
same,T/C,"dose: 1200.0 mg/kg/injection, schedule: Q04DX003 (sc), vehicle: Klucel (hydroxypropylcellulose) (HPC)",95 % of control
CCNC(=O)OCc1c(COC(=O)NCC)c(-c2ccc(Cl)c(Cl)c2)n2c1CCC2,T/C,"dose: 100.0 mg/kg/injection, schedule: Q01DX010 (sc), vehicle: saline with Tween-80",26 % of control and 31 % of control
same,T/C,[1],95 % of control
O=Cc1ccc(C(Cl)(Cl)Cl)cc1,T/C,[2],176 % of control
same,T/C,[1],179 % of control
same,T/C,"dose: 800.0 mg/kg/injection, schedule: Q01DX010 (sc), vehicle: saline with Tween-80",77 % of control
CN(CCN(C)C(=O)CCOS(C)(=O)=O)C(=O)CCOS(C)(=O)=O,T/C,[3],58 % of control
same,T/C,[4],27 % of control
CN(C)CCCNc1c2ccccc2nc2cccc([N+](=O)[O-])c12,T/C,"dose: 0.37 mg/kg/injection, schedule: Q04DX003 (sc), vehicle: saline",117 % of control
same,T/C,"dose: 0.75 mg/kg/injection, schedule: Q04DX003 (sc), vehicle: saline",100 % of control
same,T/C,"dose: 1.5 mg/kg/injection, schedule: Q04DX003 (sc), vehicle: saline",95 % of control
ClCC[N+]12CC[N+](CCCl)(CC1)C2,T/C,[2],42 % of control and 56 % of control
same,T/C,[5],24 % of control
same,T/C,[6],54 % of control
Cc1[nH]c(=O)[nH]c(=O)c1N(CCF)CCCl,T/C,"dose: 40.0 mg/kg/injection, schedule: Q01DX010 (sc), vehicle: Klucel (hydroxypropylcellulose) (HPC)",19 % of control and 34 % of control and 36 % of control
Cc1ccc(S(=O)(=O)N/N=C/C(=O)O)cc1,T/C,"dose: 12.5 mg/kg/injection, schedule: Q01DX010 (sc), vehicle: Klucel (hydroxypropylcellulose) (HPC)",98 % of control
same,T/C,"dose: 50.0 mg/kg/injection, schedule: Q01DX010 (sc), vehicle: Klucel (hydroxypropylcellulose) (HPC)",37 % of control and 55 % of control
same,T/C,"dose: 200.0 mg/kg/injection, schedule: Q01DX010 (sc), vehicle: Klucel (hydroxypropylcellulose) (HPC)",45 % of control
same,T/C,"dose: 400.0 mg/kg/injection, schedule: Q01DX010 (sc), vehicle: Klucel (hydroxypropylcellulose) (HPC)",58 % of control
CC[C@]1(O)C[C@H]2CN(CCc3c([nH]c4ccccc34)[C@@](C(=O)OC)(c3cc4c(cc3OC)N(C)[C@H]3[C@@](O)(C(=O)OC)[C@H](OC(C)=O)[C@]5(CC)C=CCN6CC[C@]43[C@@H]65)C2)C1,T/C,[7],52 % of control
same,T/C,"dose: 1.0 mg/kg/injection, schedule: Q01DX010 (sc), vehicle: saline",68 % of control
same,T/C,[8],28 % of control
NC(=O)Oc1cccc(OC(N)=O)c1,T/C,"dose: 300.0 mg/kg/injection, schedule: Q04DX003 (sc), vehicle: water",105 % of control
same,T/C,[6],89 % of control
same,T/C,"dose: 1200.0 mg/kg/injection, schedule: Q04DX003 (sc), vehicle: water",67 % of control
same,T/C,"dose: 2400.0 mg/kg/injection, schedule: Q04DX003 (sc), vehicle: water",54 % of control
CCN1C=C/C(=C\C=C/c2cc[n+](CC)c3ccccc23)c2ccccc21,T/C,[7],195 % of control
Cc1c(N)nc([C@H](CC(N)=O)NC[C@H](N)C(N)=O)nc1C(=O)N[C@H](C(=O)N[C@H](C)[C@@H](O)[C@H](C)C(=O)N[C@H](C(=O)NCCc1nc(-c2nc(C(=O)NCCC[S+](C)C)cs2)cs1)[C@@H](C)O)C(OC1OC(CO)C(O)C(O)C1OC1OC(CO)C(O)C(OC(N)=O)C1O)c1cnc[nH]1 (stereo partly specified),T/C,[8],14 % of control
same,T/C,"dose: 4.0 mg/kg/injection, schedule: Q01DX010 (sc), vehicle: saline",71 % of control
same,T/C,"dose: 16.0 mg/kg/injection, schedule: Q04DX003 (sc), vehicle: saline",49 % of control
same,T/C,"dose: 32.0 mg/kg/injection, schedule: Q04DX003 (sc), vehicle: saline",47 % of control
Cc1ccccc1SSc1ccccc1C,T/C,[1],268 % of control
same,T/C,[5],99 % of control
CC(=O)ON(C(C)=O)c1ccc(C(N)=O)cc1,T/C,[9],110 % of control
same,T/C,[10],114 % of control
same,T/C,[11],100 % of control
same,T/C,[12],97 % of control
COC1=CC(=O)N(C(=O)C2CSC(C(CO)NC(=O)c3csc(/C=N/O)n3)=N2)C1 (stereo unspecified),T/C,"dose: 225.0 mg/kg/injection, schedule: Q04DX003 (sc), vehicle: Klucel (hydroxypropylcellulose) (HPC)",59 % of control
same,T/C,"dose: 450.0 mg/kg/injection, schedule: Q04DX003 (sc), vehicle: Klucel (hydroxypropylcellulose) (HPC)",112 % of control
same,T/C,"dose: 900.0 mg/kg/injection, schedule: Q04DX003 (sc), vehicle: Klucel (hydroxypropylcellulose) (HPC)",87 % of control
same,T/C,"dose: 1800.0 mg/kg/injection, schedule: Q04DX003 (sc), vehicle: Klucel (hydroxypropylcellulose) (HPC)",50 % of control
O=C1C(O)=C(c2ccccc2)C(=O)C(O)=C1c1ccccc1,T/C,[13],80 % of control
same,T/C,[3],71 % of control
COC1C(OC(=O)/C=C/C=C/C=C/C=C/C(=O)O)CCC2(CO2)C1C1(C)OC1CC=C(C)C (stereo unspecified),T/C,[13],76 % of control
same,T/C,[3],81 % of control
same,T/C,[4],75 % of control
same,T/C,"dose: 600.0 mg/kg/injection, schedule: Q04DX003 (sc), vehicle: saline",66 % of control
Nc1nc2c(C(=O)N3CCCC3)nnn2c2ccccc12,T/C,[9],55 % of control
C[CH2][Ge]1([CH2]C)[CH2]CC2(CCN(CCCN(C)C)C2)C[CH2]1,T/C,[3],89 % of control
N=[N+]=CC(=O)OCC(N)C(=O)O (stereo unspecified),T/C,"dose: 12.5 mg/kg/injection, schedule: Q01DX010 (sc), vehicle: saline",101 % of control
O=C(O)C1CC(c2ccccc2)=NN1c1ccccc1 (stereo unspecified),T/C,"dose: 150.0 mg/kg/injection, schedule: Q04DX003 (sc), vehicle: water",105 % of control
O=P1(N(CCCl)CCCl)NCCCO1 (stereo unspecified),T/C,"dose: 3.13 mg/kg/injection, schedule: Q01DX010 (sc), vehicle: saline",76 % of control
same,T/C,"dose: 6.25 mg/kg/injection, schedule: Q01DX010 (ip), vehicle: saline",48 % of control
same,T/C,"dose: 6.25 mg/kg/injection, schedule: Q01DX010 (sc), vehicle: saline",85 % of control
same,T/C,"dose: 12.5 mg/kg/injection, schedule: Q01DX010 (ip), vehicle: saline",29 % of control
same,T/C,"dose: 20.8 mg/kg/injection, schedule: Q04DX003 (ip), vehicle: saline",151 % of control
same,T/C,"dose: 25.0 mg/kg/injection, schedule: Q01DX010 (ip), vehicle: saline",56 % of control
same,T/C,"dose: 41.66 mg/kg/injection, schedule: Q04DX003 (ip), vehicle: saline",51 % of control
same,T/C,"dose: 41.66 mg/kg/injection, schedule: Q04DX003 (sc), vehicle: saline",44 % of control
same,T/C,"dose: 50.0 mg/kg/injection, schedule: Q04DX003 (sc), vehicle: suspension in saline",87 % of control and 92 % of control
same,T/C,"dose: 83.33 mg/kg/injection, schedule: Q04DX003 (sc), vehicle: saline",20 % of control
same,T/C,"dose: 100.0 mg/kg/injection, schedule: Q04DX003 (sc), vehicle: saline",28 % of control
same,T/C,"dose: 100.0 mg/kg/injection, schedule: Q04DX003 (sc), vehicle: suspension in saline",70 % of control and 90 % of control
same,T/C,"dose: 200.0 mg/kg/injection, schedule: Q04DX003 (sc), vehicle: saline",13 % of control
same,T/C,"dose: 200.0 mg/kg/injection, schedule: Q04DX003 (sc), vehicle: suspension in saline",42 % of control
CN(C)CCOc1ccc2c(c1)C/C(=C/c1ncc([N+](=O)[O-])n1C)C2=O,T/C,[10],93 % of control
same,T/C,[11],82 % of control
same,T/C,[12],44 % of control
same,T/C,"dose: 2400.0 mg/kg/injection, schedule: Q04DX003 (sc), vehicle: saline with Tween-80",61 % of control
